# In publication PMC12080387, “Integrated thermal proteome and thermal proximity co-aggregation profiling identifies ATP6V1C1 as a novel anti-cancer drug target” (International Journal of Biological Sciences, 2025):
# Biological target: T1, ATP6V1C1 (Homo sapiens, UniProt P21283)
# T1 construct: human wild-type ATP6V1C1, N-terminal 6xHis tag, modified pET30a, expressed in E. coli BL21 (DE3)
# Assay: ITC with purified recombinant protein; supported by CETSA/ITDRF (half-maximal destabilization […]) and TPP
# Format: binding
# T1 sequence (P21283 2-382): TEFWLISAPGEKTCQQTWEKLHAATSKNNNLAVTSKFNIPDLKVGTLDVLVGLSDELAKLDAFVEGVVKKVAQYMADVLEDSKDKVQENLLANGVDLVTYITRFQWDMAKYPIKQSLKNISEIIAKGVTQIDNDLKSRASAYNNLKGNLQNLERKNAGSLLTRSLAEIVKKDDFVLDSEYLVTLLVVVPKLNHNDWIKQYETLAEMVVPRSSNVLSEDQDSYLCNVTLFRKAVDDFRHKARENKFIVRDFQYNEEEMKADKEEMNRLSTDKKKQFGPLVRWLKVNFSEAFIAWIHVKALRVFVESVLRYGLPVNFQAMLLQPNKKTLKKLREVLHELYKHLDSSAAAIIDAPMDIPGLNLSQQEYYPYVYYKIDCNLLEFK
structure (smiles),measurement,value
"Cc1c([C@H](C)[C@@H]2NC[C@@H](C)C[C@H]2O)ccc2c1C[C@H]1[C@H]2CC=C2C[C@@H](O)CC[C@@]21C [VAM, veratramine]",Kd,1170 nM
